Data from US20240287089A1, “Preparation and Uses of 7-Azaindenoisoquinolines” (Purdue Research Foundation, priority 0001, published 2024).

Assay: Brain penetration and plasma/brain pharmacokinetics in combination with Temodar or Lynparza
Settings: for Vd: iv, 10 mg/kg, Vss—obs
[1] = 10 mg/kg IV + Lynparza 100 mg/kg PO, 0.25 h
[2] = 10 mg/kg IV + Lynparza 100 mg/kg PO, 0.5 h
[3] = 10 mg/kg IV + Lynparza 100 mg/kg PO, 1 h
[4] = 10 mg/kg IV + Lynparza 100 mg/kg PO, 2 h
[5] = 10 mg/kg IV + Lynparza 100 mg/kg PO, 4 h
[6] = 10 mg/kg IV + Lynparza 100 mg/kg PO, 8 h
[7] = 10 mg/kg IV + Lynparza 100 mg/kg PO, 24 h
[8] = LMP400 10 mg/kg IV + Temador 125 mg/kg PO, 0.25 h
[9] = LMP400 10 mg/kg IV + Temador 125 mg/kg PO, 0.5 h
[10] = LMP400 10 mg/kg IV + Temador 125 mg/kg PO, 2 h
[11] = LMP400 10 mg/kg IV + Temador 125 mg/kg PO, 4 h
[12] = LMP400 10 mg/kg IV + Temador 125 mg/kg PO, 8 h
[13] = LMP400 10 mg/kg IV + Temador 125 mg/kg PO, 24 h
[14] = brain, 10 mg/kg IV + Lynparza 100 mg/kg PO
[15] = brain, LMP400 10 mg/kg IV + Temador 125 mg/kg PO
[16] = plasma, 10 mg/kg IV + Lynparza 100 mg/kg PO
[17] = plasma, LMP400 10 mg/kg IV + Temador 125 mg/kg PO

Experimental: A similar analysis was performed with LMP744 and LMP400 in combination with Temodar and Lynparza.

With `COc1cc2c3c(n(CCCN4CCOCC4)c(=O)c2cc1OC)-c1cc2c(cc1C3=O)OCO2` [LMP400, indotecan] the “Brain Conc” value [1] was 14924 ± 107 nM, the “Brain/Plasma Conc Ratio” value [1] was 4.58 and the “Plasma Conc” value [1] was 3258 ± 295 nM. The “Brain Conc” value [2] was 12083 ± 1787 nM, the “Brain/Plasma Conc Ratio” value [2] was 5.42 and the “Plasma Conc” value [2] was 2231 ± 419 nM. The “Brain Conc” value [3] was 6670 ± 431 nM, the “Plasma Conc” value [3] was 1787 ± 169 nM and the “Brain Conc” value [4] was 3766 ± 408 nM. For the same compound, the “Brain/Plasma Conc Ratio” value [4] was 2.73, the “Plasma Conc” value [4] was 1381 ± 84 nM and the “Brain Conc” value [5] was 2666 ± 265 nM. For the same compound, the “Brain/Plasma Conc Ratio” value [5] was 2.83, the “Plasma Conc” value [5] was 941 ± 190 nM and the “Brain Conc” value [6] was 1162 ± 104 nM. The “Plasma Conc” value [6] was 491 ± 53 nM, the “Brain Conc” value [7] was 235 ± 76 nM and the “Plasma Conc” value [7] was 111 ± 39 nM. The “Brain/Plasma Conc Ratio” value [8] was 5.99, the “Plasma Conc” value [8] was 2311 ± 274 nM and the “Brain Conc” value [9] was 10074 ± 1157 nM. The “Brain/Plasma Conc Ratio” value [9] was 5.20, the “Plasma Conc” value (LMP400 10 mg/kg IV + Temador 125 mg/kg PO, 1 h) was 1944 ± 211 nM and the “Brain/Plasma Conc Ratio” value [10] was 3.16. For the same compound, the “Plasma Conc” value [10] was 1041 ± 57 nM, the “Brain Conc” value [11] was 1722 ± 226 nM and the “Brain/Plasma Conc Ratio” value [11] was 2.79. The “Plasma Conc” value [11] was 617 ± 24 nM, the “Brain Conc” value [12] was 919 ± 165 nM and the “Brain/Plasma Conc Ratio” value [12] was 1.91. For the same compound, the “Plasma Conc” value [12] was 481 ± 104 nM, the “Brain Conc” value [13] was 177 ± 70 nM and the “Brain/Plasma Conc Ratio” value [13] was 0.96. For the same compound, the AUCInf [14] was 20928 ng·h/g, the AUClast [14] was 19983 ng·h/g and the “AUC—% Extrap—obs” value [14] was 4.51%. The Cmax [14] was 12173 ng/g, the T1/2 [14] was 6.01 h and the AUCInf [15] was 16590 ng·h/g. For the same compound, the AUClast [15] was 15811 ng·h/g, the “AUC—% Extrap—obs” value [15] was 4.70% and the Cmax [15] was 9080 ng/g. The “MRTInf—obs” value [15] was 5.67 h, the T1/2 [15] was 6.35 h and the Tmax [15] was 4.98 min. For the same compound, the concentration at 0.25 h (mouse, brain, intravenous, Brain Conc, LMP400 10 mg/kg IV + Temador 125 mg/kg PO, 0.25 h) was 13800 ± 638 nM, the concentration at 1 h (mouse, brain, intravenous, Brain Conc, LMP400 10 mg/kg IV + Temador 125 mg/kg PO, 1 h) was 5360 ± 276 nM and the concentration at 2 h (mouse, brain, intravenous, Brain Conc, LMP400 10 mg/kg IV + Temador 125 mg/kg PO, 2 h) was 5290 ± 321 nM. For the same compound, the concentration at 0.5 h (mouse, plasma, intravenous, Plasma Conc, LMP400 10 mg/kg IV + Temador 125 mg/kg PO, 0.5 h) was 1940 ± 274 nM, the Vd (mouse, plasma, plasma, 10 mg/kg IV + Lynparza 100 mg/kg PO) was 10.4 L/kg and the Vd (mouse, plasma, plasma, LMP400 10 mg/kg IV + Temador 125 mg/kg PO) was 11.9 L/kg. It also gave an AUCInf [16] of 7144 ng·h/mL, an AUClast [16] of 6642 ng·h/mL and an AUClast/D [16] of 664 h·ng/mL per mg/kg. For the same compound, the “AUC—% Extrap—obs” value [16] was 7.02%, the C0 [16] was 2286 ng/mL and the Cl_obs [16] was 23.3 mL/min/kg. It also gave a T1/2 [16] of 6.74 h, an AUCInf [17] of 6248 ng·h/mL and an AUClast [17] of 5823 ng·h/mL. For the same compound, the AUClast/D [17] was 582 h·ng/mL per mg/kg, the “AUC—% Extrap—obs” value [17] was 6.80% and the C0 [17] was 3042 ng/mL. For the same compound, the Cl_obs [17] was 26.7 mL/min/kg, the “MRTInf—obs” value [17] was 7.41 h and the T1/2 [17] was 7.03 h.
